Measured values taken from patent publication US20040018500A1, “Methods and systems for analyzing complex biological systems” (priority 2001, published 2004).

Experiments:
[1] = system: Saccharomyces cerevisiae wild type strain BY4743; test: AF1 combined gene expression and metabolite data mapped to KEGG reactions and pathways; format: cell-based
Excerpt: In AF1, two different technologies were utilized: gene expression analysis (for examination of mRNA expression) and metabolite analysis. […] As noted previously, existing metabolic databases may be helpful in practicing the methods and systems of the present invention, but many databases include limitations that make their use in data analysis and pathway mapping less than straightforward. […] This caveat to KEGG makes it difficult to pinpoint the correct pathway when attempting to link a gene to a specific pathway. […] The pathway score indicates how meaningful the mapping is, or how likely it is to be correctly indicative of the pathway involved in the perturbation under examination. The method provides a pathway score based on perturbation levels of genes and/or compounds and the information content of each gene and/or compound in the pathway, i.e., a pathway score indicates the extent to which other pathways are mapped to a gene/compound. For example, imagine that two genes are perturbed in a particular experiment. One gene maps to only one pathway, giving a high degree of probability that the perturbed pathway is the one identified in the mapping. The second gene maps to three pathways. In the later example, there is only one-third the probability that the pathway identified in the mapping is the one perturbed. The present invention provides a method for calculating the pathway scores, so that more weight is given to a score of a gene or compound that maps to only one pathway than to a score of a gene or compound that maps to multiple pathways. […] Where n=the total number of genes in the pathway; ipath—count=the number of pathways containing a gene; and j=the number of genes in the pathway that are perturbed. Another factor to be considered when weighting a pathway score is the degree of perturbation. Degree of perturbation can be calculated, for example, based on a number of standard deviations from a norm, and included in an equation such as the one shown above, so that not only the number of pathways is taken into account, but also accounts for the amount of gene transcript or compound present as compared to a control. Compounds were also linked to pathways using the KEGG database. […] Of the 676 compounds under consideration, 77 were detected in the AF1 samples. […] The multiple mapping feature of KEGG makes it difficult to pinpoint the correct pathway when trying to link a compound to a specific pathway. […] A pathway score calculation is applied to the compounds to account for both information content (number of pathways a compound maps to) and perturbation level. The data were then combined to determine the number of reactions showing an enzyme and at least one compound perturbed, and to determine the number of pathways having at least one enzyme and one perturbed compound perturbed. The results of the analysis are represented in Tables 16 and 17, and were difficult to interpret, illustrating that the ability to draw conclusions from compound mapping to pathways is limited when absent additional data.

[2] = system: Saccharomyces cerevisiae wild type strain BY4743; test: AF1 metabolite analysis (GC-MS, LC-MS) of yeast treated with antifungal drugs; format: cell-based

## OC(Cn1cncn1)(Cn1cncn1)c1ccc(F)cc1F [Fluconazole]
[1]
  Number of Reactions Having an Enzyme and at Least One Compound Perturbed: 2
[2]; GC
  Fold Change of alanine: 0.3084
  Fold Change of asparagine: 0.3999
  Fold Change of aspartic acid: 0.4337
  Fold Change of campesterol: 0
  Fold Change of desmosterol: 0
  Fold Change of disaccaride1: 0.3883
  Fold Change of disaccaride2: 0.1517
  Fold Change of disaccaride3: 0.5803
  Fold Change of ergosterol: 0.948
  Fold Change of fucosterol: 6.665
  Fold Change of glutamine: 0.5242
  Fold Change of glycanopyrose: 1.202
  Fold Change of glycerol: 0.2187
  Fold Change of glycine: −0.1037
  Fold Change of hexadecanoic acid: 0.1343
  Fold Change of iso citric acid: 0.3923
  Fold Change of isoleucine: 0.391
  Fold Change of lanosterol: 8.462
  Fold Change of leucine: 0.3387
  Fold Change of lysine: 0.3412
  Fold Change of malic acid: 0.3975
  Fold Change of mevalonic acid lactone: 0.2333
  Fold Change of octadecanoic acid: 0.082
  Fold Change of oleic acid: −0.3073
  Fold Change of ornithine2: 0.4473
  Fold Change of ornithine3: 0.2647
  Fold Change of palmiteliadic acid: −0.08867
  Fold Change of phenylalanine: 0.2774
  Fold Change of phosphate: −0.508
  Fold Change of pyrimidine: 0.2457
[2]; LC
  Fold Change of abscisic acid: 0
  Fold Change of adenosine: 0
  Fold Change of glutamine/lysine: 0.2242
  Fold Change of guanosine: −0.9981
[2]; nLC
  Fold Change of 2-ketobutyric acid: −0.9992
  Fold Change of 2-ketoglutaric: −0.9995
  Fold Change of 3-indolylacetonitri: −0.9998
  Fold Change of 4-methylcatechol: 0
  Fold Change of 4aminobutyrate/dimg: 0.1384
  Fold Change of 5hydroxyLtryptophan: 0
  Fold Change of 6-benzylaminopurine: 0
  Fold Change of DLaminoadipic acid: 0.443
  Fold Change of NacetylDglucosamine: 0
  Fold Change of NacetylLglutamate: 0.1369
  Fold Change of NacetylLornithine: 0
  Fold Change of abscisic acid: 0
  Fold Change of aconitic acid: 0.6483
  Fold Change of adenine: 0
  Fold Change of adenosine: 0
  Fold Change of alanine: 0.399
  Fold Change of allantoic acid: 0.2392
  Fold Change of allantoin: 0.3942
  Fold Change of anthranilic acid: 0
  Fold Change of arginine: 0.6484
  Fold Change of argininosuccinate: 0
  Fold Change of asparagine: 0.3545
  Fold Change of aspartic: 0.4993
  Fold Change of benzoic acid: 0
  Fold Change of biotin: 0.3455
  Fold Change of caffeic acid: −0.4711
  Fold Change of catechol: 0
  Fold Change of cinnamic acid: 0
  Fold Change of citricanoic/itaconi: 0
  Fold Change of citrulline: 0
  Fold Change of coumaric acid: 0
  Fold Change of cytidine: −0.7969
  Fold Change of cytosine: 0
  Fold Change of decanoic acid: 0.1846
  Fold Change of diaminopimelic acid: 0
  Fold Change of dihydrofolic acid: 0
  Fold Change of estrone: 0
  Fold Change of farnesol: 0
  Fold Change of folic acid: 0
  Fold Change of fumaric/3m2oxobutan: 0.6009
  Fold Change of gallic acid: 0.5071
  Fold Change of gibberellic: 0
  Fold Change of giutamine/lysine: 0.3309
  Fold Change of glucosamine6PO4: −0.9951
  Fold Change of glutamic/acetylseri: 0.3842
  Fold Change of guanine: 0
  Fold Change of guanosine: −0.993
  Fold Change of histidine: 0
  Fold Change of homogentisic/uric: 0
  Fold Change of hydrocortisone: 0
  Fold Change of indole3pyruvic acid: 0
  Fold Change of inostol/glucos/sorb: −0.4744
  Fold Change of isocitric/citric/qu: 1.457
  Fold Change of jasmonic acid: 0
  Fold Change of kinetin: 0
  Fold Change of lactic acid: −0.0439
  Fold Change of lauric acid: 0.3906
  Fold Change of leucine/isoleucine/: 0.3306
  Fold Change of luteolin: 0
  Fold Change of malic acid: 0.4366
  Fold Change of malonic acid: 0
  Fold Change of menthol*: 0.04758
  Fold Change of methionine: 0
  Fold Change of nicotinic acid: 2.443
  Fold Change of nopaline: 0.3432
  Fold Change of oleic acid: −0.01684
  Fold Change of ornithine: 0.3508
  Fold Change of orotic acid: 0
  Fold Change of palmitic acid: −0.0233
  Fold Change of phenylalanine: 0.1527
  Fold Change of phenylpyruvic acid: 0
  Fold Change of phosphoenolpyruvate: 0
  Fold Change of pinitol: 0
  Fold Change of pipecolic acid: 0.2901
  Fold Change of porphobilinogen: 0
  Fold Change of proline: 0.4164
  Fold Change of pyridoxine: −0.04201
[2]; pLC
  Fold Change of 4-aminobenzoic acid: 0
  Fold Change of 4-methylcatechol: 0
  Fold Change of 4ambutyrate/dimglyc: −0.4383
  Fold Change of 5hydroxyLtryptophan: 0
  Fold Change of 6benzylaminopurine: 0
  Fold Change of DL-aminoadipic acid: 0.1155
  Fold Change of NacetylDglucosamine: 0
  Fold Change of NacetylLglutamate: 0
  Fold Change of NacetylLornithine: 0.1584
  Fold Change of adenine: −0.09439
  Fold Change of alanine/sarcosine: 0.1269
  Fold Change of allantoic acid: 0
  Fold Change of anthranilic acid: 0
  Fold Change of arginine: 0.1179
  Fold Change of argininosuccinate: 0
  Fold Change of asparagine: 0.3192
  Fold Change of aspartic acid: 0.214
  Fold Change of biotin: 0
  Fold Change of caffeine: 0
  Fold Change of citric acid TME: 0
  Fold Change of citrulline: 0.08252
  Fold Change of cytidine: 0
  Fold Change of cytosine: 0
  Fold Change of diaminopimelic acid: 0
  Fold Change of dihydrofolic acid: 0
  Fold Change of dipicolinic acid: 0
  Fold Change of folic acid: 0
  Fold Change of glucosamine: 0
  Fold Change of glucosamine6PO4: 0
  Fold Change of glutamate: −0.06179
  Fold Change of glutathione: −0.05832
  Fold Change of histidine: 0
  Fold Change of hydrocortisone: 0
  Fold Change of hypoxanthine: 0.1298
  Fold Change of itaconic acid dimes: 0
  Fold Change of kinetin: 0
  Fold Change of leucine/isoleucine/: 0.1638
  Fold Change of luteolin: 0
  Fold Change of mannitol: 0.152
  Fold Change of methionine: −0.2906
  Fold Change of mevalonic lactone: −0.5175
  Fold Change of niacinamide: 0
  Fold Change of nicotinic acid: −0.7982
  Fold Change of nopaline: 0
  Fold Change of ornithine: 0.4775
  Fold Change of phenylalanine: −0.1809
  Fold Change of phosphoenolpyruvate: 0
  Fold Change of pipecolic acid: 0.2583
  Fold Change of progesterone: 0
  Fold Change of proline: 0.2075
  Fold Change of pyridoxine: −0.3831

## CC[C@@H]([C@H](C)O)n1ncn(-c2ccc(N3CCN(c4ccc(OC[C@@H]5CO[C@@](Cn6cncn6)(c6ccc(F)cc6F)C5)cc4)CC3)cc2)c1=O [Posaconazole]
[1]
  Number of Reactions Having an Enzyme and at Least One Compound Perturbed: 0
[2]; platform GC, p-Value 0.965157424
  Fold Change of ornithine3: 0.041
[2]; platform LC, p-Value 1
  Fold Change of phosphoenolpyruvate: 0
[2]; platform nLC, p-Value 1
  Fold Change of NacetylDglucosamine: 0
  Fold Change of NacetylLornithine: 0
  Fold Change of orotic acid: 0
  Fold Change of phenylpyruvic acid: 0
  Fold Change of phosphoenolpyruvate: 0
  Fold Change of pinitol: 0
  Fold Change of retinoic acid: 0
  Fold Change of salicylic/HObenzoic: 0
  Fold Change of shikimic acid: 0
  Fold Change of sinapinic acid: 0
  Fold Change of thymine: 0
  Fold Change of urocanic acid: 0
  Fold Change of xanthosineDiH2O: 0
  Fold Change of zeatin: 0
[2]; platform pLC, p-Value 1
  Fold Change of NacetylLglucosamine: 0
  Fold Change of NacetylLglutamate: 0
  Fold Change of niacinamide: 0
  Fold Change of nopaline: 0
  Fold Change of progesterone: 0
  Fold Change of riboflavin: 0
  Fold Change of sugar-phosphate: 0
  Fold Change of thiamine: 0
  Fold Change of thymine: 0
  Fold Change of tryptophan: 0
  Fold Change of uric acid: 0
  Fold Change of urocanic acid: 0
  Fold Change of xanthosine(diH2O): 0
  Fold Change of zeatin: 0
